Experimental data: US4168206A, “Impregnated disk method for testing antifungal susceptibility” (Philadelphia College of Osteopathic Medicine, priority 1977, dated 1979)
Converted amounts (≈) assume the structure as drawn.

Tests used:
Type in all cases: cell-based
[1] = system: Geotrichum candidum; assay: MIC by broth dilution method, Geotrichum candidum; settings: broth dilution method, read-out: Minimum Inhibitory Concentration, Broth
Text: (§1) The preparation of the nutrient media, the antifungal agents and the fungi to be tested in the present invention are similar to those reported in S. Shadomy and A. Espinel-Ingroff, "Susceptibility Testing Of Antifungal Agents", Ch. 63, pp. 569-574 in E. H. Lennett, E. H. Spaulding, and J. P. Truant, Eds., Manual Of Clinical Microbiology, 2nd Ed., American Society for Microbiology, Washington, D.C. (1974). This publication describes the susceptibility testing of antifungal agents, namely, amphotericin B, nystatin and 5-fluoro-cytosine (5-FC), by the "broth dilution method" and the "semisolid agar dilution method". At pages 570-571, it is stated:
(§2) In 10 duplicate runs with each strain tested, the variation in minimum inhibitory concentration averaged ±0.05 μg/ml.
(§3) *Broth dilution method conducted in accordance with S. Shadomy and E.
(§4) Espinel-Ingroff, "Susceptibility Testing of Antifungal Agents", Ch. 63,
(§5) pp. 569-574 in E. H. Spaulding and J. P. Truant, Eds., Manual Of Clinical
(§6) Microbiology, 2nd Ed., American Society for Microbiology, Washington, […]

[2] = system: Cryptococcus neoformans; assay: MIC by impregnated disk method, Cryptococcus neoformans; settings: Cryptococcus neoformans
Protocol: (§7) Stock solutions of the antifungal agents to be tested are preferably prepared by diluting the antifungal agents in the proper nutrient medium. It is presently preferred to prepare dilutions in 10 ml of the proper medium to give the following final concentrations when applied to the disks (all quantities in micrograms per milliliter): 0.05, 0.08, 0.09, 0.1; 0.1 increment increases to 0.9, 1.0; 0.5 increment increases to 10.0; and 12.0, 14.0, 20.0, 25.0 and 50.0. Disks have been prepared by placing 0.05 ml of the above dilutions of antifungal agent containing medium on 6.5 mm diameter disks in 0.01 or 0.02 ml increments. The impregnated disks are then allowed to dry at a temperature preferably below about 10° C. […] The disks may also be dried by a lyophilization or freeze drying process.
(§8) To perform the tests in accordance with the present inventions, disks impregnated with various concentrations of antifungal agent and nutrient medium and a control disk impregnated only with the corresponding nutrient medium are placed on the fungus to be tested which has been applied to the non-nutrient medium. The disks are the inoculated non-nutrient medium are then incubated at a suitable temperature for a sufficient time to promote growth of the fungus. Any temperature is suitable if it will promote growth of the fungus without adversely affecting the fungus or the activity of the antifungal agent or agents tested. The time of incubation can be determined by observing the extent of growth around the control disk. […] The zones of growth or inhibition around the disks were read at 6, 12, 24, 36 and 48 hours after the disks were placed on the tested fungus.
(§9) The minimum inhibitory concentration is defined as the lowest concentration of antifungal agent which inhibits visible growth. The disks containing concentrations of antifungal agents below the minimum inhibitory concentration show circumscribed growth of the fungus around the disk. Disks containing concentrations of antifungal agent at or above the minimum inhibitory concentration show no circumscribed growth.
(§10) Clinical isolates of various fungi listed in Table 1 were obtained from different patients diagnosed as having fungal infections. The fungal inocula were prepared by using a 24-48 hour cultures grown in yeast nitrogen base containing 1% glucose and 0.15% asparagine. After centrifuging, the supernatant was removed, the sedimented cells were washed twice with sterile distilled water and a cell suspension was adjusted to 80% transmission at 520 nm using a Beckman DB-GT grating spectrophotometer.
(§11) Sterile liquified 2% purified agar was placed in petri dishes and allowed to harden. The surface of the agar was inoculated with a sterile cotton swab saturated with a suspension of an organism. The uniformly swabbed plates were then allowed to dry.
(§12) Disks were prepared using the dilutions described above for amphotericin B, nystatin and 5-fluorocytosine. 0.05 ml of the dilutions of each antifungal agent diluted with the appropriate nutrient medium were pipetted on 6.5 mm diameter disks. The disks were dried at 4° C. after each application. Control disks were also prepared.
(§13) Several test disks and a control disk were placed in each petri dish containing the inoculated agar. The disks and petri dishes were then incubated at 29° C. and the minimum inhibitory concentration of the various concentrations of the antifungal agents were read at 6, 12, 24, 36 and 48 hours.
as §2

[3] = system: C. tropicalis; assay: MIC by broth dilution method, Candida tropicalis; settings: Candida tropicalis; C. tropicalis; broth dilution method; read-out: Minimum Inhibitory Concentration, Broth
Text: as §1, §2, §3, §4, §5, §6

[4] = system: Candida albicans; assay: MIC by broth dilution method, Candida albicans; settings: Candida albicans
Text: as §1, §2, §3, §4, §5, §6

[5] = system: Geotrichum candidum; assay: MIC by impregnated disk method, Geotrichum candidum; settings: disk method, read-out: Minimum Inhibitory Concentration, Disk
Protocol: as §7, §8
(§14) The minimum inhibitory concentration is defined as the lowest concentration of antifungal agent which inhibits visible growth. […]
(§15) Several test disks and a control disk were placed in each petri dish containing the inoculated agar. The disks and petri dishes were then incubated at 29° C. and the minimum inhibitory concentration of the various concentrations of the antifungal agents were read at 6, 12, 24, 36 and 48 hours. […]

[6] = system: C. tropicalis; assay: MIC by impregnated disk method, Candida tropicalis; settings: Candida tropicalis; C. tropicalis; disk method; read-out: Minimum Inhibitory Concentration, Disk
Protocol: as §7, §8, §14, §15

[7] = system: Trichosporon sp.; assay: MIC by broth dilution method, Trichosporon sp.; settings: Trichosporon sp.; broth dilution method; read-out: Minimum Inhibitory Concentration, Broth
Text: as §1, §2, §3, §4, §5, §6

[8] = system: C. parapsilosis; assay: MIC by impregnated disk method, Candida parapsilosis; settings: Lodderomyces parapsilosis
Protocol: as §7, §8, §9, §10, §11, §12, §13, §2

[9] = system: C. parapsilosis; assay: MIC by broth dilution method, Candida parapsilosis; settings: Lodderomyces parapsilosis
Text: as §1, §2, §3, §4, §5, §6

[10] = system: Saccharomyces cerevisiae; assay: MIC by impregnated disk method, Saccharomyces cerevisiae; settings: Saccharomyces cerevisiae
Protocol: as §7, §8, §9, §10, §11, §12, §13, §2

[11] = system: Torulopsis glabrata; assay: MIC by impregnated disk method, Torulopsis glabrata; settings: Nakaseomyces glabratus; Torulopsis glabrata; disk method; read-out: Minimum Inhibitory Concentration, Disk
Protocol: as §7, §8, §14, §15

[12] = system: Cryptococcus neoformans; assay: MIC by broth dilution method, Cryptococcus neoformans; settings: Cryptococcus neoformans
Text: as §1, §2, §3, §4, §5, §6

[13] = system: Torulopsis glabrata; assay: MIC by broth dilution method, Torulopsis glabrata; settings: Nakaseomyces glabratus; Torulopsis glabrata; broth dilution method; read-out: Minimum Inhibitory Concentration, Broth
Text: as §1, §2, §3, §4, §5, §6

[14] = system: Trichosporon sp.; assay: MIC by impregnated disk method, Trichosporon sp.; settings: Trichosporon sp.; disk method; read-out: Minimum Inhibitory Concentration, Disk
Protocol: as §7, §8, §14, §15

[15] = system: Candida albicans; assay: MIC by impregnated disk method, Candida albicans; settings: Candida albicans
Protocol: as §7, §8, §9, §10, §11, §12, §13, §2

[16] = system: Saccharomyces cerevisiae; assay: MIC by broth dilution method, Saccharomyces cerevisiae; settings: Saccharomyces cerevisiae
Text: as §1, §2, §3, §4, §5, §6

SMILES: Nc1nc(=O)[nH]cc1F [5-Fluorocytosine, 5-fluorocytosine]
- MIC [1]: 3 µg/mL (≈ 23.2 µM)
- MIC ([2]; C. neoformans isolate 2, read-out: Minimum Inhibitory Concentration, Disk): 15 µg/mL (≈ 116 µM)
- MIC ([2]; Cryptococcus neoformans isolate 1, read-out: Minimum Inhibitory Concentration, Disk): 10 µg/mL (≈ 77.5 µM)
- MIC [3]: 6 µg/mL (≈ 46.5 µM)
- MIC ([4]; isolate 1, read-out: Minimum Inhibitory Concentration, Broth): 6.5 µg/mL (≈ 50.4 µM)
- MIC ([4]; isolate 2, read-out: Minimum Inhibitory Concentration, Broth): 0.6 µg/mL (≈ 4.65 µM)
- MIC ([4]; isolate 3, read-out: Minimum Inhibitory Concentration, Broth): 3 µg/mL (≈ 23.2 µM)
- MIC ([4]; isolate 4, read-out: Minimum Inhibitory Concentration, Broth): 3.5 µg/mL (≈ 27.1 µM)
- MIC ([4]; isolate 5, read-out: Minimum Inhibitory Concentration, Broth): 0.7 µg/mL (≈ 5.42 µM)
- MIC ([4]; isolate 6, read-out: Minimum Inhibitory Concentration, Broth): 0.7 µg/mL (≈ 5.42 µM)
- MIC [5]: 2.5 µg/mL (≈ 19.4 µM)
- MIC [6]: 7.5 µg/mL (≈ 58.1 µM)
- MIC [7]: 50 µg/mL (≈ 387 µM)
- MIC ([8]; C. parapsilosis isolate 1, read-out: Minimum Inhibitory Concentration, Disk): 0.9 µg/mL (≈ 6.97 µM)
- MIC ([8]; C. parapsilosis isolate 2, read-out: Minimum Inhibitory Concentration, Disk): 1.5 µg/mL (≈ 11.6 µM)
- MIC ([9]; C. parapsilosis isolate 1, read-out: Minimum Inhibitory Concentration, Broth): 0.8 µg/mL (≈ 6.2 µM)
- MIC ([9]; C. parapsilosis isolate 2, read-out: Minimum Inhibitory Concentration, Broth): 2 µg/mL (≈ 15.5 µM)
- MIC ([10]; S. cerevisiae isolate 2, read-out: Minimum Inhibitory Concentration, Disk): 0.8 µg/mL (≈ 6.2 µM)
- MIC ([10]; Saccharomyces cerevisiae isolate 1, read-out: Minimum Inhibitory Concentration, Disk): 1.5 µg/mL (≈ 11.6 µM)
- MIC [11]: 0.8 µg/mL (≈ 6.2 µM)
- MIC ([12]; C. neoformans isolate 2, read-out: Minimum Inhibitory Concentration, Broth): 12 µg/mL (≈ 93 µM)
- MIC ([12]; Cryptococcus neoformans isolate 1, read-out: Minimum Inhibitory Concentration, Broth): 8.5 µg/mL (≈ 65.8 µM)
- MIC [13]: 0.7 µg/mL (≈ 5.42 µM)
- MIC [14]: 50 µg/mL (≈ 387 µM)
- MIC ([15]; isolate 1, read-out: Minimum Inhibitory Concentration, Disk): 8.5 µg/mL (≈ 65.8 µM)
- MIC ([15]; isolate 2, read-out: Minimum Inhibitory Concentration, Disk): 0.3 µg/mL (≈ 2.32 µM)
- MIC ([15]; isolate 3, read-out: Minimum Inhibitory Concentration, Disk): 2 µg/mL (≈ 15.5 µM)
- MIC ([15]; isolate 4, read-out: Minimum Inhibitory Concentration, Disk): 6 µg/mL (≈ 46.5 µM)
- MIC ([15]; isolate 5, read-out: Minimum Inhibitory Concentration, Disk): 0.8 µg/mL (≈ 6.2 µM)
- MIC ([15]; isolate 6, read-out: Minimum Inhibitory Concentration, Disk): 0.5 µg/mL (≈ 3.87 µM)
- MIC ([16]; S. cerevisiae isolate 2, read-out: Minimum Inhibitory Concentration, Broth): 1 µg/mL (≈ 7.75 µM)
- MIC ([16]; Saccharomyces cerevisiae isolate 1, read-out: Minimum Inhibitory Concentration, Broth): 2.5 µg/mL (≈ 19.4 µM)
